Columns and labels:
[1] = tested on: LNCaP AI-tumors; test: Therapy of mice bearing LNCaP androgen-independent (AI) tumors; assay type: in vivo
[2] = tested on: LAPC9 androgen-independent tumors; test: Therapy of LAPC9 androgen-independent tumors; assay type: in vivo, mice
Procedure: (§1) The xenograft models—LAPC9, LAPC4, LNCaP, and VCaP were serially passaged in castrated male NOD/SCID-γ mice (NSG; for LNCaP or NOD/SCID for the other models). The tumors were then harvested for western blot analysis for androgen receptor, androgen receptor-target molecules, cancer stem cell (CSC) and castration resistance (CR) markers. PC3 cells were used as a negative control for androgen receptors. 60 μg of whole cell lysate was loaded in each lane. GADPH was run as the loading controls (top and bottom panels).
To determine the sensitivity of LAPC9 androgen-independent tumors to enzalutamide, therapy experiments were performed as described for the LNCaP primary AI tumors (FIG. 3). […] To determine whether blocking alternate pathways regulated by any of these high expressing proteins, in the Enzalutamide resistant LAPC9 androgen-independent tumors, affects tumor burden, therapy experiments were performed with the Bromodomain and Extra-Terminal protein (a upstream regulator of Myc transcription) inhibitor, JQ1. The integrin α2β1 inhibitor, Compound 15 (142,143) was used as a positive control.

[3] = tested on: LAPC4 androgen-independent tumors; test: Therapy of castrated mice bearing LAPC4 androgen-independent tumors; assay type: in vivo
Procedure: as §1
To determine whether targeting cyt-AR in these tumors would be effective in reducing tumor burden, castrated mice bearing LAPC4 androgen-independent tumors were administered enzalutamide as indicated (FIG. 5B), and the tumor volume measured.
However, starting from ˜6.5-7 weeks, tumors resumed growth, indicative of resistance to enzalutamide. […] This opens the possibility of employing combinatorial approaches that target androgen receptor (Enzalutamide) together molecules such as Bcl2 (Venetoclax).

[4] = enzalutamide-resistant LAPC9 AI tumors
[5] = enzalutamide-resistant LAPC4 tumors, western blot

CC#C[C@]1(O)CC[C@H]2[C@@H]3CCC4=CC(=O)CCC4=C3[C@@H](c3ccc(N(C)C)cc3)C[C@@]21C [mifepristone]
emergence (incidence) of LNCaP secondary castration resistant prostate cancer ([1]; combination with enzalutamide given simultaneously, LNCaP primary AI tumors, P<0.0001, χ2 test for venetoclax combination): without reducing incidence
tumor growth ([1]; combination with enzalutamide, LNCaP primary AI tumors): inhibited tumor growth

Cc1sc2c(c1C)C(c1ccc(Cl)cc1)=N[C@@H](CC(=O)OC(C)(C)C)c1nnc(C)n1-2 [JQ1, (S)-tert-butyl 2-(4-(4-chlorophenyl)-2,3,9-trimethyl-6H-thieno[3,2-f][1,2,4]triazolo[4,3-a][1,4]diazepin-6-yl)acetate]
tumor growth [2, 4]: significantly inhibited tumor growth
tumor incidence [2, 4]: not tumor incidence

CNC(=O)c1ccc(N2C(=S)N(c3ccc(C#N)c(C(F)(F)F)c3)C(=O)C2(C)C)cc1F [Enzalutamide, 4-(3-(4-Cyano-3-(trifluoromethyl)phenyl)-5,5-dimethyl-4-oxo-2-thioxoimidazolidin-1-yl)-2-fluoro-N-methylbenzamide]
FKBP5 levels ([2]; both vehicle and treatment groups, western blot): greatly diminished
levels of integrin α2, c-Myc, N-cadherin, Bcl-2 and p-ERK1/2 ([2]; enzalutamide-treated tumors, western blot): continued to express high levels
response of tumors to enzalutamide (tumor volume) ([2]; primary AI tumors, vehicle corn oil): refractory
expression of androgen receptors and PSA ([2]; western blot and IHC of endpoint tumors): no expression
E-cadherin expression [3, 5]: slight increases
levels of GR, N-cadherin, Bcl-2 and integrin α2 [3, 5]: continued to express high levels
androgen receptor localization ([3]; enzalutamide-resistant tumors, immuno-histochemistry): still largely in the cytoplasm
tumor growth compared to vehicle (corn oil) control ([3]; first 2-3 weeks): grew significantly slower
time from which tumors resumed growth (resistance to enzalutamide) ([3]; mouse, in vivo): 6.5-7 weeks
growth of enzalutamide-resistant cyto-AR+ LAPC4 tumors ([3]; up to 13 weeks, compared with enzalutamide-resistant LNCaP tumors): grew relatively slow
Bcl-2 expression in response to enzalutamide ([1]; among CSC and castration resistance markers, western blot): most prominent upregulation
duration of growth suppression ([1]; enzalutamide i.p.): 6.5 weeks
time at which no further response to enzalutamide was observed (emergence of enzalutamide-resistant tumors) ([1]; enzalutamide i.p.): about 7 weeks
growth of androgen-independent LNCaP tumors ([1]; enzalutamide i.p., vehicle corn oil): suppressed growth
FKBP5 expression ([1]; enzalutamide-resistant secondary LNCaP CR tumors, western blot): decreased
PSA expression ([1]; enzalutamide-resistant secondary LNCaP CR tumors, western blot and IHC): decreased

Source: patent US11278524B2, “Formulations and methods for the treatment of cancers” (Stemirna (Shanghai) Biotechnology Co. LTED., priority 2018, dated 2022)
